Source: ChEMBL document CHEMBL6134827, “The discovery of novel antimicrobial peptides against drug-resistant bacteria based on fragments fusion strategy” (Eur J Med Chem, 2025)
Calls of active or inactive are those of the source. The rule behind the calls is not given here. Non-standard residues stand in square brackets, D forms with d. Residues, ends and D or L forms follow the SMILES beside them. Dab = NCC[C@H](N)C(=O)O

Tests used:
[1] = test system: Acinetobacter baumannii; assay: Antimicrobial activity against multidrug resistant Acinetobacter baumannii assessed as inhibition of visible microbial growth incubated for 18 hrs by broth microdilution method; format: functional
[2] = test system: Pseudomonas aeruginosa; assay: Antimicrobial activity against multidrug resistant Pseudomonas aeruginosa at 1.9 to 500 microg/ml in presence of phosphatidylcholine by checkerboard microdilution assay; format: functional, organism-based; details: dose 1.9-500 µg/ml
[3] = test system: Cell membrane; assay: Induction of cytoplasmic membrane depolarization in multidrug resistant Pseudomonas aeruginosa assessed as increase in fluorescence intensity measured for 12 min by DISC3-5 dye based fluorescence analysis; format: subcellular; details: dose 4-32 µg/ml
[4] = Cytotoxicity against HEK293T cells assessed as survival rate at 64 microg/ml measured after 24 hrs by CCK-8 assay relative to control; format: toxicity, cell-based, HEK-293T; details: human, at 64 µg/mL, read-out: Survival
[5] = test system: Pseudomonas aeruginosa; assay: In vivo antibacterial activity against multidrug resistant Pseudomonas aeruginosa infected in acute peritonitis C57BL/6 mouse model assessed as decrease in IL-1beta level in serum at 5 to 20 mg/kg, ip measured after 12 hrs by ELISA; format: functional, organism-based; details: dose 5-20 mg/kg
[6] = Cytotoxicity against human BEAS-2B cells assessed as survival rate at 64 microg/ml measured after 24 hrs by CCK-8 assay relative to control; format: toxicity, cell-based; details: at 64 µg/mL, read-out: Survival
[7] = test system: Pseudomonas aeruginosa; assay: In vivo antibacterial activity against multidrug resistant Pseudomonas aeruginosa infected in acute peritonitis C57BL/6 mouse model assessed as reduction in bacterial load in lung at 10 to 20 mg/kg, ip measured after 12 hrs; format: functional, organism-based; details: dose 10-20 mg/kg
[8] = Hepatotoxicity in female C57BL/6 mouse assessed as change in ALT level at 20 mg/kg, ip administered daily and measured for 5 days; format: toxicity, organism-based; details: in vivo, 120 h, time 5 day
[9] = test system: Pseudomonas aeruginosa; assay: Antimicrobial activity against multidrug resistant Pseudomonas aeruginosa at 1.9 to 500 microg/ml in presence of phosphatidylglycerol acid by checkerboard microdilution assay; format: functional, organism-based; details: dose 1.9-500 µg/ml
[10] = test system: Escherichia coli; assay: Antimicrobial activity against multidrug resistant Escherichia coli assessed as inhibition of visible microbial growth incubated for 18 hrs by broth microdilution method; format: functional
[11] = test system: Pseudomonas aeruginosa; assay: In vivo antibacterial activity against multidrug resistant Pseudomonas aeruginosa infected in acute peritonitis C57BL/6 mouse model assessed as reduction in pulmonary edema at 5 to 20 mg/kg, ip measured after 12 hrs by H and E staining based analysis; format: functional, organism-based; details: dose 5-20 mg/kg
[12] = test system: Pseudomonas aeruginosa; assay: Drug resistance, ratio of MIC for multidrug resistant Pseudomonas aeruginosa after 16 passages to MIC for multidrug resistant Pseudomonas aeruginosa after first exposure; format: functional
[13] = test system: Staphylococcus aureus; assay: Antibacterial activity against multidrug resistant Staphylococcus aureus assessed as reduction in bacterial growth at 32 microg/mL by bactericidal kinetic assay; format: functional, organism-based; details: dose 32.0 µg/ml, time 0.5-4 hrs
[14] = test system: Cell membrane; assay: Induction of outer cell membrane permeabilization in multidrug resistant Pseudomonas aeruginosa assessed as increase in fluorescence intensity at >16 microg/ml measured for 12 mins by NPN uptake assay; format: subcellular; details: dose > 16.0 µg/ml
[15] = test system: Cell membrane; assay: Disruption of cell membrane in multidrug resistant Staphylococcus aureus assessed as increase in red fluorescence at 16 microg/mL incubated after 2 hrs by SYTO9/PI double staining based fluorescence confocal microscopic analysis; format: subcellular; details: dose 16.0 µg/ml
[16] = test system: Staphylococcus aureus; assay: Antimicrobial activity against Staphylococcus aureus ATCC 29213 assessed as inhibition of visible microbial growth incubated for 18 hrs by broth microdilution method; format: functional

## CC(C)C[C@H](NC(=O)CN)C(=O)N[C@@H](CCCNC(=N)N)C(=O)N[C@@H](CCN)C(=O)N[C@@H](Cc1c[nH]c2ccccc12)C(=O)N[C@@H](CC(C)C)C(=O)N[C@@H](CCCNC(=N)N)C(=O)N[C@@H](CCN)C(=O)N[C@@H](Cc1ccccc1)C(=O)N[C@@H](CCN)C(=O)N[C@@H](CCN)C(=O)N[C@@H](Cc1ccccc1)C(=O)N[C@@H](Cc1c[nH]c2ccccc12)C(=O)O (H-GLR[Dab]WLR[Dab]F[Dab][Dab]FW-OH)
[1]
  MIC: 4.8 µM
[2]
  Activity: Active
[3]
  Activity: Dose-dependent-effect
[4]
  viability at 24 h, 64 µg/mL: > 80%
[5]
  Activity: Active
[6]
  viability at 24 h, 64 µg/mL: > 80%
[7]
  Activity: Active
[8]
  Activity: Non-toxic
[9]
  Activity: inactive
[10]
  MIC: 4.8 µM
[11]
  Activity: Active
[12]
  Ratio: <2
[13]
  Activity: Time-dependent-effect
[14]
  Activity: Active
[15]
  Activity: Active
[16]
  MIC: 4.8 µM
